Measurements from patent US7879868B2 (Novartis AG, priority 2002, dated 2011).
Read-outs that look alike come from different tables or passages of the source.

What was measured:
[1] = Effect of imatinib on irinotecan pharmacokinetics in mice; details: for SN-38 plasma exposure: irinotecan 10 mg/kg oral; for bioavailability: mouse, plasma, oral
Description: Ci: rate of clearance; Ka: absorption rate; F: calculated bioavailability (relative to intravenous dosing).

BCRP = target: T1, BCRP (Homo sapiens, UniProt Q9UNQ0)
T1 sequence (Q9UNQ0 1-655): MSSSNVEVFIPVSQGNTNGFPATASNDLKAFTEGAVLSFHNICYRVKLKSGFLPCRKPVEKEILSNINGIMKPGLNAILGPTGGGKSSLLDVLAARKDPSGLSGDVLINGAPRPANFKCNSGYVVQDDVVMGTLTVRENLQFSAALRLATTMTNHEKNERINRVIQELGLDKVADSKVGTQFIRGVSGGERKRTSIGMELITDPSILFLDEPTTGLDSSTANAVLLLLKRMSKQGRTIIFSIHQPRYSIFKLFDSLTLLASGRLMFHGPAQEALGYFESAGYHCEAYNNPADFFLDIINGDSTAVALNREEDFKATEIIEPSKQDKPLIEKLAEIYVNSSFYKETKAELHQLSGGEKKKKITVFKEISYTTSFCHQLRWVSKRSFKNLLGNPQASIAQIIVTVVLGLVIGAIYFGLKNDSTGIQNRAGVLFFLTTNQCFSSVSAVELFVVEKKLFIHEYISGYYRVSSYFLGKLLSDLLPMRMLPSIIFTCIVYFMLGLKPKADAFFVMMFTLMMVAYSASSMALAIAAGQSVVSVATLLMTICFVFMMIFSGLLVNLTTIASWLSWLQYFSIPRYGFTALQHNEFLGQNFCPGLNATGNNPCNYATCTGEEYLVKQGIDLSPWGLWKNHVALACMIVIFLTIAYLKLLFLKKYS

Saos2pcDNA#3#2 cells = assay: Growth inhibition in vector control Saos2 cells; format: cell-based, human
Saos2BCRP#4 cells = assay: cells
Saos2BCRPMUT#10 cells = assay: cells
[2] = Homo sapiens, SAOS-2, read-out: concentration of topotecan causing 50% growth inhibition, in presence of 1 μM imatinib
[3] = Homo sapiens, SAOS-2, read-out: concentration of topotecan causing 50% growth inhibition, in presence of 3 μM imatinib
[4] = Homo sapiens, SAOS-2, read-out: concentration of topotecan causing 50% growth inhibition, in presence of 5 μM imatinib
[5] = Homo sapiens, SAOS-2, read-out: concentration of topotecan causing 50% growth inhibition, topotecan alone
[6] = read-out: concentration of SN-38 causing 50% growth inhibition (IC50), imatinib 0 μM
[7] = read-out: concentration of SN-38 causing 50% growth inhibition (IC50), imatinib 0.1 μM
[8] = read-out: concentration of SN-38 causing 50% growth inhibition (IC50), imatinib 0.3 μM
[9] = read-out: concentration of SN-38 causing 50% growth inhibition (IC50), imatinib 1.0 μM
[10] = read-out: concentration of SN-38 causing 50% growth inhibition (IC50), imatinib 3.0 μM

Cc1ccc(NC(=O)c2ccc(CN3CCN(C)CC3)cc2)cc1Nc1nccc(-c2cccnc2)n1 [imatinib]
effect of imatinib on oral bioavailability of irinotecan ([1]; mice, imatinib 50 mg/kg oral + irinotecan 10 mg/kg oral): enhances oral bioavailability of irinotecan | reversal of BCRP-mediated resistance to topotecan (summary of Table 1) (BCRP): complete reversal of BCRP-mediated resistance to topotecan

CC[C@@]1(O)C(=O)OCc2c1cc1n(c2=O)Cc2cc3c(CN(C)C)c(O)ccc3nc2-1 [topotecan]
IC50 (Saos2pcDNA#3#2 cells; Homo sapiens, SAOS-2, Saos2pcDNA cells, read-out: IC50 concentration of topotecan): 0.016 µM | IC50 (Saos2pcDNA#3#2 cells; Homo sapiens, SAOS-2, in presence of 1 μM imatinib, read-out: concentration of topotecan causing 50% growth inhibition): 0.023 µM | IC50 (Saos2pcDNA#3#2 cells; Homo sapiens, SAOS-2, in presence of 3 μM imatinib, read-out: concentration of topotecan causing 50% growth inhibition): 0.02 µM | IC50 (Saos2pcDNA#3#2 cells; Homo sapiens, SAOS-2, in presence of 5 μM imatinib, read-out: concentration of topotecan causing 50% growth inhibition): 0.023 µM | IC50 (Saos2pcDNA#3#2 cells; Homo sapiens, SAOS-2, topotecan alone, read-out: concentration of topotecan causing 50% growth inhibition): 0.02 µM | IC50 (Saos2BCRP#4 cells; Homo sapiens, SAOS-2, read-out: IC50 concentration of topotecan, Saos2BCRP#4 cells): 0.167 µM | IC50 (Saos2BCRP#4 cells; [2]): 0.035 µM | IC50 (Saos2BCRP#4 cells; [3]): 0.024 µM | IC50 (Saos2BCRP#4 cells; [4]): 0.022 µM | IC50 (Saos2BCRP#4 cells; [5]): 0.254 µM | IC50 (Saos2BCRPMUT#10 cells; Homo sapiens, SAOS-2, read-out: IC50 concentration of topotecan, Saos2Mut#10 cells): 0.009 µM | IC50 (Saos2BCRPMUT#10 cells; [2]): 0.018 µM | IC50 (Saos2BCRPMUT#10 cells; [3]): 0.0099 µM | IC50 (Saos2BCRPMUT#10 cells; [4]): 0.015 µM | IC50 (Saos2BCRPMUT#10 cells; [5]): 0.009 µM

CCc1c2c(nc3ccc(O)cc13)-c1cc3c(c(=O)n1C2)COC(=O)[C@]3(O)CC [SN-38, 7-ethyl-10-hydroxycamptothecin]
SN-38 plasma exposure ([1]; mice, with imatinib 50 mg/kg oral): 775 ng/h/mL | SN-38 plasma exposure ([1]; mice, without imatinib): 263 ng/h/mL | IC50 (Saos2pcDNA#3#2 cells; [6]): 0.0029 µM | IC50 (Saos2pcDNA#3#2 cells; [7]): 0.0027 µM | IC50 (Saos2pcDNA#3#2 cells; [8]): 0.0027 µM | IC50 (Saos2pcDNA#3#2 cells; [9]): 0.0033 µM | IC50 (Saos2pcDNA#3#2 cells; [10]): 0.0037 µM | IC50 (Saos2BCRP#4 cells; [6]): > 0.1 µM | IC50 (Saos2BCRP#4 cells; [7]): 0.082 µM | IC50 (Saos2BCRP#4 cells; [8]): 0.029 µM | IC50 (Saos2BCRP#4 cells; [9]): 0.014 µM | IC50 (Saos2BCRP#4 cells; [10]): 0.007 µM | IC50 (Saos2BCRPMUT#10 cells; [6]): 0.0017 µM | IC50 (Saos2BCRPMUT#10 cells; [7]): 0.0017 µM | IC50 (Saos2BCRPMUT#10 cells; [8]): 0.0016 µM | IC50 (Saos2BCRPMUT#10 cells; [9]): 0.0017 µM | IC50 (Saos2BCRPMUT#10 cells; [10]): 0.0016 µM

CCc1c2c(nc3ccc(OC(=O)N4CCC(N5CCCCC5)CC4)cc13)-c1cc3c(c(=O)n1C2)COC(=O)[C@]3(O)CC [IRN]
bioavailability [1]: 23 ± 2% | bioavailability ([1]; 10 mg/kg): 9 ± 2%
